For 2 compounds, IC50 results are on record in US10307407B2, “9H-pyrimido [4,5-B] indoles as BET bromodomain inhibitors” (THE REGENTS OF THE UNIVERSITY OF MICHIGAN, priority 2015, dated 2019).

One assay relates to MDA-MB-231 cells. As to the kind of experiment: Cell growth inhibition, 4-day proliferation assay (WST), MDA-MB-231. It counts as cell-based. Particulars: Homo sapiens, MDA-MB-231, 96 h, breast cancer cell line, 4 days treatment. The method, then: (§1) The effect of representative Compounds of the Disclosure on cell viability was determined in a 4-day proliferation assay. Cells were maintained in the appropriate culture medium with 10% FBS at 37° C. and an atmosphere of 5% CO2. All the cell lines were used within three months of thawing fresh vials.
(§2) Cells were seeded in 96-well flat bottom (Corning COSTAR, Corning, NY, cat#3595) or white opaque cell culture plates (BD Falcon, cat#353296) at a density of 3,000-10,000 cells/well in 75 μl of culture medium. Compounds were serially diluted in the appropriate medium, and 75 μl of the diluted compounds were added to the appropriate wells of the cell plate. After the addition of compounds, the cells were incubated at 37° C. in an atmosphere of 5% CO2 for 4 days. Cell viability was determined using the CellTiter-Glo® Luminescent Cell Viability Assay Kit (Promega, Madison, Wis.) for RS4-11 and MV4-11 cells and WST (2-(2-methoxy-4-nitrophenyl)-3-(4-nitrophenyl)-5-(2,4-disulfophenyl)-2H-tetrazolium, monosodium salt) Cell Counting-8 Kit (Dojindo Molecular Technologies, Inc., Rockville, Md.) for MDA-MB-231 cells according to the manufacturers' instructions.
For WST assay (MDA-MB-231 cells), WST-8 reagent was added to each well at a final concentration of 10% (v/v), and then the plates were incubated at 37° C. for 1-2 hours for color development. The absorbance was measured at 450 nm using a SPECTRAmax PLUS plate reader (Molecular Devices, Sunnyvale, Calif.). The readings were normalized to the DMSO-treated cells and the half maximal inhibitory concentration (IC50) was calculated by nonlinear regression (four parameters sigmoid fitted with variable slope, least squares fit, and no constraint) analysis using the GraphPad Prism 5 software (GraphPad Software, La Jolla, Calif.).
(§3) Cell growth inhibition of representative Compounds of the Disclosure in representative breast cancer (MDA-MB-231), acute leukemia (MV4-11), and prostate cancer cell lines (LNCaP), as determined by a WST assay, are presented in Table 3. Cells were treated with each inhibitor for 4 days.

A further assay concerns LNCaP cells. As to the kind of experiment: Cell growth inhibition, 4-day proliferation assay, LNCaP. The class given is cell-based. The settings on record: Homo sapiens, 96 h, prostate cancer cell line, 4 days treatment. The method, then:
as §1, §2, §3

A further assay addresses T1, recombinant BRD4 BD1 (Homo sapiens, UniProt O60885).
T1 construct: recombinant BRD4 BD1 and BRD4 BD2 proteins
As to the kind of experiment: Competitive fluorescence-polarization (FP) binding assay, BRD4 BD1. Particulars: FAM labeled probe 1.5 nM, protein 10 nM, pH 6.5. The method, then:
(§4) Fluorescence Polarization (FP) competitive binding studies were carried out using a FAM labeled fluorescent probe (ZBA248 or BRD-1F) to determine binding affinities of representative Compounds of the Disclosure for recombinant BRD4 BD1 and BRD4 BD2 proteins. For example, equilibrium dissociation constants (Kd) values of ZBA248 to these six proteins were determined from protein saturation experiments by monitoring the total fluorescence polarization of mixtures composed with the fluorescent probe at a fixed concentration and proteins with increasing concentrations up to full saturation. Serial dilutions of testing protein were mixed with ZBA248 to a final volume of 200 μl in the assay buffer. In order to achieve large dynamic rages, particularly for BD1 bromodomains, 100 mM phosphate buffer (pH=6.5, 0.01% Triton X-100 (Sigma, 282103) being added right before assays) was used as the assay buffer. Final ZBA248 concentration was 1.5 nM for all proteins. Plates were incubated at room temperature for 30 minutes with gentle shaking to assure equilibrium. FP values in millipolarization units (mP) were measured using the Infinite M-1000 plate reader (Tecan U.S., Research Triangle Park, N.C.) in Microfluor 1 96-well, black, round-bottom plates (Thermo Scientific, Waltham, Mass.) at an excitation wavelength of 485 nm and an emission wavelength of 530 nm. Kd values of ZBA248 were calculated by fitting the sigmoidal dose-dependent FP increases as a function of protein concentrations using Graphpad Prism 6.0 software (Graphpad Software, San Diego, Calif.).
(§5) The IC50 and Ki values of representative Compounds of the Disclosure were determined in a competitive binding experiment as described above. Mixtures of 10 μl of the tested compounds in assay buffer with 40% Ethylene Glycol and 190 μl of preincubated protein/probe complex solution in the assay buffer (100 mM potassium phosphate, pH 6.5, 0.01% Triton X-100) were added into assay plates which were incubated at room temperature for 30 minutes with gentle shaking. Final concentrations of proteins were 10 and 6 nM in assays for BD1 and BD2 of BRD4, respectively. Final probe concentration is 1.5 nM in all assays. Negative controls containing protein/probe complex only (equivalent to 0% inhibition), and positive controls containing only free probes (equivalent to 100% inhibition), were included in each assay plate. FP values were measured as described above. IC50 values were determined by nonlinear regression fitting of the competition curves. Instead of being calculated from IC50 values as described before, Ki values of competitive inhibitors were obtained directly by nonlinear regression fitting as well, based upon the Kd values of the probe to different proteins, and concentrations of the proteins and probes in the competitive assays (Wang, FEBS Lett. 360; 111 (1995); Zhang et al., Analytical Biochemistry, 331; 138 (2004)).
(§6) Binding affinities of representative Compounds of the Disclosure to BRD4 BD1 and BRD4 BD2 proteins in competitive, fluorescence-polarization assays are presented in Table 2.

For the next assay, the system named is MV4-11 cells. As to the kind of experiment: Cell growth inhibition, 4-day proliferation assay, MV4-11. It counts as cell-based. Particulars: Homo sapiens, MV4-11, 96 h, acute leukemia cell line, 4 days treatment. The method, then:
as §1, §2
For CellTiter-Glo assay (RS4-11 and MV4-11 cells), 100 μl of CellTiter-Glo® Reagent was added to each well, and then the plates were incubated at room temperature for 10-20 minutes. The luminescent signal was measured using a Tecan Infinite M1000 multimode microplate reader (Tecan, Morrisville, N.C.). The readings were normalized to the DMSO-treated cells and the IC50 was calculated by nonlinear regression (four parameters sigmoid fitted with variable slope, least squares fit, and no constraint) analysis using the GraphPad Prism 5 software.
as §3

A further assay has as its target T2, recombinant BRD4 BD2 (Homo sapiens, UniProt O60885).
T2 construct: recombinant BRD4 BD1 and BRD4 BD2 proteins
The assay is described as follows: Competitive fluorescence-polarization (FP) binding assay, BRD4 BD2. The settings on record: FAM labeled probe 1.5 nM, protein 6 nM, pH 6.5. The method, then:
as §4, §5, §6

With `CCn1nc(C2CC2)cc1Nc1nc(COC)nc2[nH]c3cc(-c4c(C)noc4C)c(OC)cc3c12` [Cpd. No. 5, N-(3-cyclopropyl-1-ethyl-1H-pyrazol-5-yl)-7-(3,5-dimethylisoxazol-4-yl)-6-methoxy-2-(methoxymethyl)-9H-pyrimido[4,5-b]indol-4-amine], the 50% inhibitory concentration (IC50) (in general, the concentration needed to halve the response being measured) in the assay with MDA-MB-231 cells worked out at 13 nM; with LNCaP cells it was 3 nM; on recombinant BRD4 BD1, 5.5 nM; in the assay on MV4-11 cells it was 3 nM; at recombinant BRD4 BD2 it was 2.4 nM.

As for `COCc1nc(Nc2cc(C3CC3)nn2C(C)C)c2c(n1)[nH]c1cc(-c3c(C)noc3C)c(OC)cc12` [Cpd. No. 7, N-(3-cyclopropyl-1-isopropyl-1H-pyrazol-5-yl)-7-(3,5-dimethylisoxazol-4-yl)-6-methoxy-2-(methoxymethyl)-9H-pyrimido[4,5-b]indol-4-amine], the IC50 was 6 nM in the assay on MDA-MB-231 cells, 3.9 nM at recombinant BRD4 BD1, 3 nM in the assay on MV4-11 cells and 2.1 nM on recombinant BRD4 BD2.
